Measurements published in BigSolDB 2.1.

C=CC(=O)N1CCC[C@@H](n2nc(-c3ccc(Oc4ccccc4)cc3)c3c(N)ncnc32)C1
solubility (mole fraction)
Conditions | 298.15 K | 303.15 K | 308.15 K | 313.15 K | 323.15 K
in transcutol | 0.0267 | 0.0288 | 0.0318 | 0.0341 | 0.0392
in water | 1.43e-07 | 2.21e-07 | 3.11e-07 | 4.13e-07 | 7.69e-07
